# Like-named read-outs stand apart in the source and are kept apart here.
# Columns and labels:
# cancer cell lines = assay: Cytotoxicity in a wide variety of cancer cell types (TC50, CellTiter-Glo, 72 or 96 hours); settings: read-out: TC50
# Method: Exponentially growing cells were plated in fresh growth media in a 96-well black, flat, clear-bottomed polystyrene microtiter plate (Packard View Plate 6005182). Twenty-four hours later, compounds were added from serial dilutions prepared in DMSO from 50 mM DMSO stock solutions. Each concentration of inhibitor was tested in duplicate at a final DMSO concentration of 0.4%. After 72 or 96 hours incubation, cell viability was quantified by measuring intracellular ATP levels using CellTiter-Glo (Promega). Luminescence data was collected on a TopCount NXT plate reader (PerkinElmer). Experimental values were normalized to solvent controls and plotted versus compound concentration to determine the concentration required for a 50% reduction in cell viability.
# [1] = tested on: cell lines (cancer, normal and primary cells); assay: NA Rescue assay (cytotoxicity with nicotinic acid added); format: cell-based; settings: fixed dose
# Method: Cell lines were treated with a fixed dose of Exemplary Compound A and screened for NA rescue and Naprt1 expression by immunoblotting and quantitative RT-PCR (Table 7). […] The 176 cell lines included 5 normal (non-cancerous) cells and 3 primary cells (italicized in the table), all of which rescued. Naprt1 was quantified by western blotting and q-RT-PCR in 164 and 123 of the 176 cell lines, respectively. […] A statistically significant (p value <0.0001) correlation existed between NA rescue phenotype and Naprt1 protein or mRNA expression levels.
# Additional cancer cell lines were treated with Exemplary Compounds A, C, D, E, F, G and H (identified below) (Table 8). The NA rescue phenotype of a particular cancer cell line was maintained for all Nampt inhibitors tested.
# [2] = tested on: Cancer cell lines (SCLC, glioma, colon cancer and others)
# Method: Experiments were conducted in HCT116 cells. […] For compound combination analyses, the MacSynergy™ II protocol and program were utilized, following the recommendations of the developers (Prichard and Shipman, 1990). Prior to combinations of compounds, dose curves of cells treated with a single compound were generated to define relevant compound doses to use in the combination analysis. Typically, relevant doses were those found in the inflection portion of a sigmoidal dose-response curve. Utilizing these optimized conditions, cells were dosed with Nampt inhibitor plus the test compound at a variety of concentrations of each, and viability was assessed using CellTiter-Glo. Data was processed using the MacSynergy™ II algorithm, which subtracted from actual data a prediction of compound additivity. Thresholds for meaningful synergy were defined based upon the recommendations of the developers (Prichard and Shipman, 1990).
# Cancer cell lines used in these studies represented cancer types found to be sensitive to Nampt inhibition [e.g. non-Hodgkins lymphoma, multiple myeloma, glioma, non-small cell lung carcinoma (NSCLC), small cell lung carcinoma (SCLC), ovarian cancer and colorectal cancer].
smiles,measurement,setting,value
O=C(NCc1cccnc1)Nc1ccc(COc2ccccc2-c2ccccc2)cc1 [Exemplary Compound A],CC50,"cancer cell lines; A172 cells, glioma, 3 DAY",1.1 nM
same,CC50,"cancer cell lines; COLO205 cells, colon, 3 DAY",0.5 nM
same,CC50,"cancer cell lines; COLO205 cells, colon, 7 DAY",0.3 nM
same,CC50,"cancer cell lines; DB cells, lymphoma, 3 DAY",3.5 nM
same,CC50,"cancer cell lines; DMS-114 cells, SCLC, 3 DAY",0.16 nM
same,CC50,"cancer cell lines; DU145 cells, prostate, 3 DAY",3.9 nM
same,CC50,"cancer cell lines; DU145 cells, prostate, 7 DAY",2.7 nM
same,CC50,"cancer cell lines; DU4475 cells, breast, 3 DAY",0.1 nM
same,CC50,"cancer cell lines; DU4475 cells, breast, 7 DAY",0.1 nM
same,CC50,"cancer cell lines; HCC827 cells, NSCLC, 3 DAY",8 nM
same,CC50,"cancer cell lines; HCC827 cells, NSCLC, 7 DAY",1.5 nM
same,CC50,"cancer cell lines; HCT116 cells, colon, 3 DAY",0.6 nM
same,CC50,"cancer cell lines; HCT116 cells, colon, 7 DAY",0.4 nM
same,CC50,"cancer cell lines; HCT-15 cells, colon, 3 DAY",0.7 nM
same,CC50,"cancer cell lines; HCT-15 cells, colon, 7 DAY",1 nM
same,CC50,"cancer cell lines; HOP92 cells, NSCLC, 3 DAY",17 nM
same,CC50,"cancer cell lines; HOP92 cells, NSCLC, 7 DAY",4.3 nM
same,CC50,"cancer cell lines; HT29 cells, colon, 3 DAY",1.4 nM
same,CC50,"cancer cell lines; HT29 cells, colon, 7 DAY",1.1 nM
same,CC50,"cancer cell lines; HT1080 cells, sarcoma, 3 DAY",1 nM
same,CC50,"cancer cell lines; HT1080 cells, sarcoma, 7 DAY",0.6 nM
same,CC50,"cancer cell lines; KM12 cells, colon, 3 DAY",0.9 nM
same,CC50,"cancer cell lines; KM12 cells, colon, 7 DAY",0.4 nM
same,CC50,"cancer cell lines; MDA-MB-231 cells, breast, 3 DAY",10 nM
same,CC50,"cancer cell lines; MDA-MB-231 cells, breast, 7 DAY",7.5 nM
same,CC50,"cancer cell lines; MIA PaCa-2 cells, pancreatic, 3 DAY",1.8 nM
same,CC50,"cancer cell lines; MIA PaCa-2 cells, pancreatic, 7 DAY",0.4 nM
same,CC50,"cancer cell lines; NCI-H69 cells, SCLC, 3 DAY",1 nM
same,CC50,"cancer cell lines; NCI-H82 cells, SCLC, 3 DAY",1.1 nM
same,CC50,"cancer cell lines; NCI-H460 cells, NSCLC, 3 DAY",15.4 nM
same,CC50,"cancer cell lines; NCI-H522 cells, NSCLC, 3 DAY",1 nM
same,CC50,"cancer cell lines; NCI-H522 cells, NSCLC, 7 DAY",0.4 nM
same,CC50,"cancer cell lines; NCI-H929 cells, myeloma, 3 DAY",2.5 nM
same,CC50,"cancer cell lines; NCI-H1650 cells, NSCLC, 3 DAY",2.5 nM
same,CC50,"cancer cell lines; NCI-N87 cells, gastric, 3 DAY",0.3 nM
same,CC50,"cancer cell lines; NCI-N87 cells, gastric, 7 DAY",0.2 nM
same,CC50,"cancer cell lines; OCI-Ly19 cells, lymphoma, 3 DAY",1.2 nM
same,CC50,"cancer cell lines; OPM-2 cells, myeloma, 3 DAY",1.5 nM
same,CC50,"cancer cell lines; OVCAR3 cells, ovarian, 3 DAY",1.1 nM
same,CC50,"cancer cell lines; OVCAR3 cells, ovarian, 7 DAY",0.4 nM
same,CC50,"cancer cell lines; SF-295 cells, glioma, 3 DAY",1.5 nM
same,CC50,"cancer cell lines; SU-DHL-4 cells, lymphoma, 3 DAY",1.5 nM
same,CC50,"cancer cell lines; SU-DHL-5 cells, lymphoma, 3 DAY",0.9 nM
same,CC50,"cancer cell lines; U-87MG cells, glioma, 3 DAY",23 nM
same,NA rescue,"[1]; A549 cells, lung (NSCLC)",yes
same,NA rescue,"[1]; ACHN cells, kidney",yes
same,NA rescue,"[1]; AsPC-1 cells, pancreas",yes
same,NA rescue,"[1]; BEAS-2B cells, lung (normal)",yes
same,NA rescue,"[1]; BT-474 cells, breast",yes
same,NA rescue,"[1]; BxPC-3 cells, pancreas",yes
same,NA rescue,"[1]; CCRF-CEM cells, lymphocytic leukemia",yes
same,NA rescue,"[1]; CFPAC-1 cells, pancreas",yes
same,NA rescue,"[1]; CHLA-90 cells, brain, neuroblastoma",no
same,NA rescue,"[1]; Calu-1 cells, lung (NSCLC)",yes
same,NA rescue,"[1]; Calu-6 cells, lung (NSCLC)",yes
same,NA rescue,"[1]; Capan-1 cells, pancreas",yes
same,NA rescue,"[1]; DBTRG-05MG cells, brain, glioblastoma",yes
same,NA rescue,"[1]; DEL cells, lymphoma",partial
same,NA rescue,"[1]; DU145 cells, prostate",yes
same,NA rescue,"[1]; DU4475 cells, breast",yes
same,NA rescue,"[1]; Daoy cells, brain, medulloblastoma",yes
same,NA rescue,"[1]; Daudi cells, lymphoma",no
same,NA rescue,"[1]; EKVX cells, lung (NSCLC)",yes
same,NA rescue,"[1]; H4 cells, brain, neuroglioma",partial
same,NA rescue,"[1]; H9 cells, lymphoma",no
same,NA rescue,"[1]; HCC78 cells, lung (NSCLC)",no
same,NA rescue,"[1]; HOP18 cells, lung (NSCLC)",yes
same,NA rescue,"[1]; HOP62 cells, lung (NSCLC)",yes
same,NA rescue,"[1]; HOP92 cells, lung (NSCLC)",yes
same,NA rescue,"[1]; HOS cells, osteosarcoma",no
same,NA rescue,"[1]; HepG2 cells, hepatocellular carcinoma",no
same,NA rescue,"[1]; Hs683 cells, brain, glioma",yes
same,NA rescue,"[1]; Hs766T cells, pancreas",yes
same,NA rescue,"[1]; Huh7 cells, hepatocellular carcinoma",yes
same,NA rescue,"[1]; IMR-32 cells, brain, neuroblastoma",no
same,NA rescue,"[1]; IMR-90 cells, lung (normal)",yes
same,NA rescue,"[1]; JJN3 cells, myeloma (plasma cell leukemia)",yes
same,NA rescue,"[1]; Jurkat cells, lymphocytic leukemia",yes
same,NA rescue,"[1]; KARPAS-299 cells, lymphocytic leukemia",no
same,NA rescue,"[1]; KELLY cells, brain, oligodendroglioma",no
same,NA rescue,"[1]; KNS-42 cells, brain, glioma",no
same,NA rescue,"[1]; L-82 cells, lymphoma",yes
same,NA rescue,"[1]; LA-N-6 cells, brain, neuroblastoma",yes
same,NA rescue,"[1]; LNCAP cells, prostate",yes
same,NA rescue,"[1]; M059J cells, brain, malignant glioblastoma, glioma",no
same,NA rescue,"[1]; MALME-3 cells, skin (normal)",yes
same,NA rescue,"[1]; MG-63 cells, osteosarcoma",no
same,NA rescue,"[1]; MM.1S cells, myeloma",yes
same,NA rescue,"[1]; MOLP-8 cells, myeloma",partial
same,NA rescue,"[1]; MOLT4 cells, lymphocytic leukemia",yes
same,NA rescue,"[1]; MONO-MAC-6 cells, lymphocytic leukemia",partial
same,NA rescue,"[1]; MRC-5 cells, lung (normal)",yes
same,NA rescue,"[1]; NAMALWA cells, lymphoma",no
same,NA rescue,"[1]; NCI-H23 cells, lung (NSCLC)",yes
same,NA rescue,"[1]; NCI-H69 cells, lung (small cell)",no
same,NA rescue,"[1]; NCI-H146 cells, lung (small cell)",yes
same,NA rescue,"[1]; NCI-H209 cells, lung (small cell)",yes
same,NA rescue,"[1]; NCI-H226 cells, lung (NSCLC)",yes
same,NA rescue,"[1]; NCI-H322 cells, lung (NSCLC)",no
same,NA rescue,"[1]; NCI-H345 cells, lung (small cell)",yes
same,NA rescue,"[1]; NCI-H441 cells, lung (NSCLC)",yes
same,NA rescue,"[1]; NCI-H596 cells, lung (NSCLC)",partial
same,NA rescue,"[1]; NCI-H1299 cells, lung (NSCLC)",yes
same,NA rescue,"[1]; NCI-H1437 cells, lung (NSCLC)",yes
same,NA rescue,"[1]; NCI-H1568 cells, lung (NSCLC)",yes
same,NA rescue,"[1]; NCI-H1792 cells, lung (NSCLC)",yes
same,NA rescue,"[1]; NCI-H1944 cells, lung (NSCLC)",yes
same,NA rescue,"[1]; NCI-H1993 cells, lung (NSCLC)",yes
same,NA rescue,"[1]; OVCAR-3 cells, ovary",yes
same,NA rescue,"[1]; PBMC, primary blood",yes
same,NA rescue,"[1]; PFSK-1 cells, brain, malignant neuroectodermal tumor",partial
same,NA rescue,"[1]; Panc-1 cells, pancreas",yes
same,NA rescue,"[1]; RPMI-8226 cells, myeloma",partial
same,NA rescue,"[1]; Ramos cells, lymphoma",yes
same,NA rescue,"[1]; SAEC, primary lung",yes
same,NA rescue,"[1]; SF-268 cells, brain, astrocytoma, anaplastic",no
same,NA rescue,"[1]; SF-539 cells, brain, gliosarcoma",yes
same,NA rescue,"[1]; SH-SY5Y cells, brain, neuroblastoma, bone marrow met.",no
same,NA rescue,"[1]; SHP-77 cells, lung (small cell)",yes
same,NA rescue,"[1]; SJSA1 cells, osteosarcoma",yes
same,NA rescue,"[1]; SK-ES-1 cells, osteosarcoma",yes
same,NA rescue,"[1]; SK-N-FI cells, brain, neuroblastoma, bone marrow met.",no
same,NA rescue,"[1]; SK-N-MC cells, brain, neuroepithelioma, supra-orbital met.",no
same,NA rescue,"[1]; SK-N-SH cells, brain, neuroblastoma, metastatic",no
same,NA rescue,"[1]; SMS-KCNR cells, brain, neuroblastoma, ALK (R1275Q).",yes
same,NA rescue,"[1]; SNB-19 cells, brain, glioblastoma",no
same,NA rescue,"[1]; SNU182 cells, hepatocellular carcinoma",yes
same,NA rescue,"[1]; SNU449 cells, hepatocellular carcinoma",yes
same,NA rescue,"[1]; SR-786 cells, lymphoma",no
same,NA rescue,"[1]; SU-DHL-1 cells, lymphoma",no
same,NA rescue,"[1]; SU-DHL-10 cells, lymphoma",yes
same,NA rescue,"[1]; SW1088 cells, brain, astrocytoma",yes
same,NA rescue,"[1]; SW1783 cells, brain, astrocytoma",yes
same,NA rescue,"[1]; Saos-2 cells, osteosarcoma",yes
same,NA rescue,"[1]; T24 cells, bladder",yes
same,NA rescue,"[1]; THP-1 cells, lymphocytic leukemia",yes
same,NA rescue,"[1]; U251 cells, brain, glioblastoma",no
same,NA rescue,"[1]; U-2 OS cells, osteosarcoma",no
same,NA rescue,"[1]; U-937 cells, lymphoma",yes
same,NA rescue,"[1]; UWB1.289 cells, ovary",yes
same,NA rescue,"[1]; Wi-38 cells, lung (normal)",yes
same,cell lines that completely rescued with NA,[1]; of 176 cell lines tested,113
same,cell lines that did not rescue with NA,[1]; of 176 cell lines tested,47
same,cell lines that partially rescued with NA,[1]; of 176 cell lines tested,16
same,NA rescue,"[1]; keratinocytes, primary skin",yes
same,NA rescue,"[1]; no. 10 cells, brain, glioma, anaplastic",no
same,NA rescue,"[1]; no. 11 cells, brain, glioma, anaplastic",partial
same,cytotoxicity in combination with 4HC,[2],Synergistic cytotoxicity
same,cytotoxicity in combination with 5-FU,[2],Synergistic cytotoxicity
same,cytotoxicity in combination with temozolomide,[2],Synergistic cytotoxicity
